Read-outs that look alike come from different tables or passages of the source.
Experiments:
[1] = for Microsome stability, turnover: 60 mins
H526 xenograft = experiment: SCLC H526 xenograft in nude mice; format: in vivo, mouse; conditions: 40 mg/kg i.v.
Ly18 = experiment: Cytotoxicity DLBCL; conditions: read-out: cytotoxicity IC50; LY18, DLBCL GCB
Procedure: (§1) After 72 hours, the cultures were pulsed with Alamar Blue overnight, and the fluorescent intensity of resulted cultures was measured by a Synergy H1 plate-reader (BioTek Inc).

SUDHL-4 = conditions: human
Procedure: as §1

U2932 = conditions: human
Procedure: as §1

SUDHL-6 = conditions: human
Procedure: as §1

MA-10-W51 = experiment: Cytotoxicity leukemia; format: cell-based, human; conditions: growth factor dependent MA-10-W51
Excerpt: Human cord blood CD34+ cells transduced with MLL-AF9 gene: MA-10, MA-18. Human bone marrow CD34+ cells transduced with MLL-AF9 gene: MA-23. Human cord blood CD34+ cells transduced with MLL-AF9 and N-ras genes: MA-9.3, […] ).

C57Bl/6 mice = experiment: Complete blood counts in healthy mice; format: in vivo, mouse
Excerpt: This is particularly striking in the case of neutrophils, red blood cells and platelets, whose levels are the most frequent dose limiting toxicities seen in clinic evaluation of alkylating drug therapy. There was a 3-4-fold increase in monocytes. The only negative effect was a modest reduction in WBC numbers due to mild lymphopenia at day 10 in the BO-treated group.

CCRF-CEM = experiment: Cytotoxicity leukemia; format: cell-based, human
Ly10 = conditions: human
Procedure: as §1

[2] = test system: nude mice bearing prostate 22Rv/HL2; experiment: Blood chemistry, 22Rv/HL2 xenograft mice; conditions: 24 hrs after last treatment
[3] = test system: HUVEC umbilical endothelium; experiment: Cytotoxicity normal tissue 72 hr; format: cell-based, human
Karpas-422 = conditions: human
Procedure: as §1

Farage = experiment: cells; conditions: Homo sapiens, read-out: cytotoxicity IC50
CV1 renal fibroblasts = experiment: Cytotoxicity normal tissue 72 hr; format: cell-based, African green monkey (Cercopithecus aethiops)
JEKO-1 = experiment: Cytotoxicity mantle cell lymphoma
Procedure: as §1

MS-5 adult BM stroma = experiment: Cytotoxicity normal tissue 72 hr; format: cell-based, mouse
SHP77 = experiment: Cytotoxicity LCLC/SCLC; format: cell-based, human
[4] = test system: BMEC-hTert BM endothelium; format: cell-based, human
H1755 = format: cell-based, human
HL-1 cardiomyocyte = experiment: Cytotoxicity normal tissue 72 hr; format: cell-based; conditions: HL-1, 72 hr
H1703 = format: cell-based, human
H562 = experiment: Cytotoxicity SCLC 72 hr alamar blue; format: cell-based, human
H3255 = format: cell-based, human
H2228 = format: cell-based, human
HS578 breast epithelium = experiment: Cytotoxicity normal tissue 72 hr; format: cell-based, human
EBC1 = format: cell-based, human
PC1 (jap) = format: cell-based, human
CL141T = format: cell-based, human
H146 = experiment: Cytotoxicity SCLC 72 hr alamar blue; format: cell-based, human
H889 = experiment: Cytotoxicity SCLC 72 hr alamar blue; format: cell-based, human; conditions: read-out: IC50
CALU-1 = format: cell-based, human
H23 = format: cell-based, human
H678 = experiment: Cytotoxicity SCLC 72 hr alamar blue; format: cell-based, human
H82 = experiment: Cytotoxicity SCLC 72 hr alamar blue; format: cell-based, human
CALU-3 = format: cell-based, human
H520 = format: cell-based, human
MOR = experiment: Cytotoxicity NSCLC; format: cell-based, human
H647 = format: cell-based, human
[5] = 30 mg/kg i.v. every other day x5
[6] = day 10, 30 mg/kg i.v. days 1,3,5,8,10

**Q.** Which results are given for CN(C)CCNC(=O)c1cccc(NC(=O)Nc2ccc(N(CCCl)CCCl)cc2)c1 [BO-1055, Ureidomustine]?
**A.** Microsome stability, turnover [1]: 75%; Microsome stability, turnover ([1]; listed as ureidomustine): 75% (60 mins turnover %); % Remaining at 60 min ([1]; RLM): 25%; MR (metabolic rate) ([1]; RLM, 60 min): 0.0203 nmol/min/mg; complete remission (CR) (H526 xenograft; 28 d): 3/4; complete remission (CR) (H526 xenograft; 32 d): 2/4; complete remission (CR) (H526 xenograft; 77 d): 1/4; IC50 (Ly18): 0.61 µM; IC50 (SUDHL-4): 1.95 µM; IC50 (U2932): 2.22 µM; IC50 (SUDHL-6): 5.93 µM; cytotoxicity, dose titration (FIG. 9) (MA-10-W51): highly cytotoxic; increase in monocytes (C57Bl/6 mice; [5]): 3-4 fold; suppression of hematologic parameters (C57Bl/6 mice; [5]): no significant suppression; HCT (C57Bl/6 mice; [6]): 46.30 ± 1.04%; HGB (C57Bl/6 mice; [6]): 13.08 ± 0.25 g/dL; MCHC (C57Bl/6 mice; [6]): 28.28 ± 0.42 g/dL; MCV (C57Bl/6 mice; [6]): 51.03 ± 1.25 fL; MPV (C57Bl/6 mice; [6]): 6.38 ± 0.09 fL; PDW (C57Bl/6 mice; [6]): 7.40 ± 0.24 fL; PLT (C57Bl/6 mice; [6]): 1108.3 ± 76.1 K/μL; RBC (C57Bl/6 mice; [6]): 9.08 ± 0.18 M/μL; RDW-CV (C57Bl/6 mice; [6]): 23.18 ± 0.64%; RDW-SD (C57Bl/6 mice; [6]): 32.48 ± 0.29 fL; WBC (C57Bl/6 mice; [6]): 5.34 ± 0.99 K/μL; IC50 (CCRF-CEM): 0.13 ± 0.002 µM; IC50 (Ly10): 0.12 µM; ALT [2]: 56.83 U/L; AST [2]: 102.17 U/L; BUN [2]: 37.23 mg/dL; CREA [2]: 0.38 mg/dL; UA [2]: 3.73 mg/dL; IC50 [3]: 50 µM; IC50 (Karpas-422): 5.85 µM; IC50 (Farage): 0.44 µM; IC50 (CV1 renal fibroblasts; Chlorocebus sabaeus, Fibroblast, 72 h): > 100 µM; IC50 (JEKO-1): 0.27 µM; IC50 (MS-5 adult BM stroma; MS-5 (mouse), 72 hr): ≥ 10 µM; IC50 (SHP77): 40 µM; IC50 ([4]; BMEC-hTert, 72 hr): ≥ 10 µM

**Q.** What does the source list for N.N.[Cl][Pt][Cl] [Cisplatin]?
**A.** IC50 (H1755): ≥ 15 µM; IC50 (HL-1 cardiomyocyte): 47 µM; IC50 (H1703): ≥ 20 µM; IC50 (H562): 1.39 µM; IC50 (H3255): ≥ 25 µM; IC50 (H2228): ≥ 25 µM; IC50 (HS578 breast epithelium): > 100 µM; IC50 (EBC1): ≥ 100 µM; IC50 (PC1 (jap)): ≥ 20 µM; IC50 ([3]; read-out: IC50): 50 µM; IC50 (CL141T): 2.45 µM; IC50 (H146): 3.77 µM; IC50 (H889): 0.41 µM; IC50 (CALU-1): ≥ 20 µM; IC50 (H23): 2.5 µM; IC50 (H678): 3.81 µM; IC50 (CV1 renal fibroblasts; read-out: IC50): 97.9 µM; IC50 (H82): ≥ 20 µM; IC50 (CALU-3): ≥ 100 µM; IC50 (MS-5 adult BM stroma; read-out: IC50): 22 µM; IC50 (H520): 9.1 µM; IC50 ([4]; read-out: IC50): 20 µM; IC50 (MOR): 3.9 µM; IC50 (H647): 8.75 µM
